Measurements: PubChem BioAssay AID489027 (Sanford-Burnham Center for Chemical Genomics, 2010)
Active and inactive are the calls of the source. How the calls were made is not given here.

Biological target: UPR counterscreen luciferase reporter, luminescence
Assay: activators in UPR counterscreen luciferase reporter, dose response, counter-screen for adaptive UPR activator project, cell-based, luminescence (AID 489027)

SMILES: CC(C)=CCc1c2c(c3occ(-c4ccc(O)cc4)c(=O)c3c1O)C=CC(C)(C)O2
- EC50: 16.6 µM

SMILES: CC(=O)Nc1ccccc1Sc1ccc2c3c(cccc13)C(=O)N(c1ccc(C)cc1)C2=O
- EC50: > 80 µM (inactive)

SMILES: Cc1cc(-n2c(SCC(=O)Nc3ccc(F)c(F)c3)nc3n[nH]c(C)c3c2=N)ccc1Cl
- EC50: > 80 µM (inactive)

SMILES: O=C(NN1C(=O)/C(=C/c2ccc(O)c(O)c2)SC1=S)c1ccccc1
- EC50: 10.2 µM

SMILES: COc1ccc(Cn2c(SCc3cc(C)ccc3C)nc3cc(OC)c(OC)cc3c2=N)cc1
- EC50: > 80 µM (inactive)

SMILES: Cc1ccc(NC(=O)c2cc(S(=O)(=O)N(C)C)ccc2N2CCCC2)cc1S(=O)(=O)N(C)C
- EC50: 19 µM

SMILES: OC(CNCC1CCCO1)Cn1c2ccc(Cl)cc2c2cc(Cl)ccc21 (stereo unspecified)
- EC50: > 80 µM (inactive)

SMILES: Cc1ccc(/C=C/C(=O)c2cc(Br)ccc2OC(=O)c2ccco2)cc1
- EC50: inactive

SMILES: COc1ccc(N=Cc2c(O)c3ccccc3oc2=O)cc1
- EC50: 10.3 µM

SMILES: CCOC(=O)c1sc(NC(=S)NC(=O)c2ccccc2)c(C(=O)OCC)c1C
- EC50: inactive

SMILES: CC(C)(C)c1csc(NC(=O)c2ccc(Cl)s2)n1
- EC50: > 80 µM (inactive)

SMILES: Nc1c(C(=O)Nc2ccc(S(=O)(=O)N3CCCC3)cc2)sc2nc3ccc(OC(F)(F)F)cc3cc12
- EC50: 4.39 µM

SMILES: Cc1cccc2c1Sc1ccc(Cl)cc1CC2N1CCNCC1 (stereo unspecified)
- EC50: > 80 µM (inactive)

SMILES: CCOc1ccc(NC(=S)NC(=O)/C=C/c2ccc(C)cc2)c([N+](=O)[O-])c1
- EC50: > 80 µM (inactive)

SMILES: Nc1nc(SCc2ccc(Cl)cc2Cl)nc2nc3c(cc12)CCCC3
- EC50: > 80 µM (inactive)

SMILES: COc1cc(SC#N)ccc1N=Cc1c(C)[nH]n(-c2ccc(C)c(C)c2)c1=O
- EC50: 17.4 µM

SMILES: COC(=O)c1sccc1NC(=O)c1cc(-c2cccc(C)c2)nc2ccccc12
- EC50: > 80 µM (inactive)

SMILES: Cc1ccc2nc(N(CCCN(C)C)C(=O)c3ccc(S(=O)(=O)N4CCc5ccccc5C4)cc3)sc2c1
- EC50: 10.9 µM

SMILES: COc1ccc(-c2cc(C(F)F)n3ncc(C(=O)Nc4ccc(C(=O)N5CCOCC5)cc4)c3n2)cc1
- EC50: > 80 µM (inactive)

SMILES: NC1=NC[C@@H](CC2CCCCC2)N1CCc1cc(C(F)(F)F)cc(C(F)(F)F)c1
- EC50: > 80 µM (inactive)

SMILES: CCC(C)Nc1nc(N)c([N+](=O)[O-])c(NC2CCCCC2)n1 (stereo unspecified)
- EC50: inactive

SMILES: CC1=CC(C)(C)N2C(=O)C(=O)c3cc(OC(=O)c4ccco4)cc1c32
- EC50: inactive

SMILES: CCCCCCCCCCOC(=O)Cn1c(COc2ccc(Cl)cc2)[n+](C)c2ccccc21
- EC50: > 80 µM (inactive)

SMILES: Cc1nn(Cc2c(Cl)cccc2Cl)c(C)c1NC(=O)c1sc2ccccc2c1Cl
- EC50: 18.5 µM

SMILES: CCCCCCCCCCOC(=O)Cn1c(COc2ccc(OC)cc2)[n+](C)c2ccccc21
- EC50: 18.8 µM

SMILES: CCN(CC)c1ccc(/C=C/[N+](=O)[O-])cc1
- EC50: 11.3 µM

SMILES: Cc1ccc2c(=O)[nH]c(Nc3nc(C)cc(-c4ccccc4)n3)nc2c1
- EC50: > 80 µM (inactive)

SMILES: O=C(Nc1ccc(-c2nc3cc(NC(=O)c4cccs4)ccc3o2)cc1)c1cccs1
- EC50: 4.72 µM

SMILES: COc1ccc(C(CCNCc2ccccc2)c2ccc(F)cc2)cc1 (stereo unspecified)
- EC50: 10.4 µM

SMILES: FC(F)(F)c1nnc2c(Sc3ccc(Cl)cc3)nc3ccccc3n12
- EC50: 4.67 µM

SMILES: O=C(Nc1ccc([N+](=O)[O-])cc1)C(Cc1ccccc1)N1C(=O)c2cccc3cccc(c23)C1=O (stereo unspecified)
- EC50: inactive

SMILES: Clc1ccc2c(c1)C(N1CCNCC1)Cc1ccccc1S2 (stereo unspecified)
- EC50: > 80 µM (inactive)

SMILES: Cc1ccc(-c2nnc(-c3ccc(NC(=O)c4cccs4)cc3)o2)cc1
- EC50: 12.1 µM

SMILES: NC(=S)N/N=C/c1ccc(C23CC4CC(CC(C4)C2)C3)cc1
- EC50: 13.8 µM

SMILES: CC(C)(C)c1ccc(C(=O)Nc2ccc(O)c3c(=O)cc(-c4cccc(Cl)c4)oc23)cc1
- EC50: > 80 µM (inactive)

SMILES: CC(C)(C)c1cc(-c2nc(N)nc(N)n2)c(O)c(C(C)(C)C)c1
- EC50: inactive

SMILES: COc1cc(/C=N/Nc2nc(Nc3ccccc3)nc(-n3nc(C)cc3C)n2)cc(OC)c1OC
- EC50: > 80 µM (inactive)

SMILES: CCc1ccc(N2C(=O)NC(=O)/C(=C\c3cccn3CCOc3ccc(C(C)C)cc3)C2=O)cc1
- EC50: 6.38 µM

SMILES: O=C(NCCc1ccc(O)c(O)c1)C1COc2ccccc2O1 (stereo unspecified)
- EC50: 16.8 µM

SMILES: COc1cccc(-c2c(-c3cc(OC)cc(OC)c3)n(C)c3ccc(-c4cnc(N5CCOCC5)nc4)cc23)c1
- EC50: inactive

SMILES: COc1ccc2cc1Oc1ccc(cc1)C[C@H]1c3c(cc(OC)c4c3Oc3c(ccc5c3[C@H](C2)N(C)CC5)O4)CCN1C
- EC50: 7.91 µM

SMILES: COc1ccc(-c2ccc3c(c2)S(=O)(=O)c2cccc(C(=O)NCCOc4ccccc4Cl)c2C3=O)cc1OC
- EC50: > 80 µM (inactive)

SMILES: COc1cc([N+](=O)[O-])cc(/C=N/NC(=O)c2ccc(NC(=O)c3ccc(C)cc3)cc2)c1O
- EC50: inactive

SMILES: Cc1cccc(N2CCN(C(=S)Nc3ccc4nc(N5CCN(C)CC5)cc(C)c4c3)CC2C)c1 (stereo unspecified)
- EC50: > 80 µM (inactive)

SMILES: N#Cc1ccccc1/C=N/Nc1nc(-c2ccccc2)c2cc(Cl)ccc2n1
- EC50: 15.7 µM

SMILES: O=C(Nc1ccc([N+](=O)[O-])cc1)c1nc[nH]c1C(=O)NC1CCCCC1
- EC50: > 80 µM (inactive)

SMILES: CCC1CCc2c(sc3nc(SCC(=O)NCc4ccco4)n(-c4ccccc4)c(=O)c23)C1 (stereo unspecified)
- EC50: 15.8 µM

SMILES: Cc1ccc2nc(/C(C#N)=C/c3ccc(O)c(O)c3)[nH]c2c1
- EC50: 13.7 µM

SMILES: COC(=O)C1C(O)=C(C=Nc2cccc3ccccc23)C(=O)CC1(C)C (stereo unspecified)
- EC50: 1.41 µM

SMILES: Cc1ccc2oc(C(Cl)(Cl)Cl)cc(=O)c2c1
- EC50: > 80 µM (inactive)

SMILES: Cc1cc(NC(=O)CSc2ccc(-c3nc4cc(C)c(C)cc4[nH]3)cn2)no1
- EC50: inactive

SMILES: COc1cc([C@H]2c3[nH]c4ccccc4c3C[C@H]3C(=O)N4[C@@H](c5cc(OC)c(OC)c(OC)c5)c5[nH]c6ccccc6c5C[C@H]4C(=O)N23)cc(OC)c1OC
- EC50: 7.28 µM

SMILES: CC(C)c1ccc(/C=C/C(=O)Nc2nc3ccc([N+](=O)[O-])cc3s2)cc1
- EC50: inactive

SMILES: CCCNC(=O)c1c(N)n(-c2ccc3c(c2)OCO3)c2nc3ccccc3nc12
- EC50: > 80 µM (inactive)

SMILES: O=C(Nc1nc2ccc(Cl)cc2s1)c1ccc(N2CCCCC2)c([N+](=O)[O-])c1
- EC50: inactive

SMILES: N#Cc1ccccc1NC(=O)COc1c(Br)cc(Br)c2cccnc12
- EC50: inactive

SMILES: O=S(=O)(c1ccc2nc(-c3ccccc3)[nH]c2c1)N1CCN(c2ccc(Cl)cc2)CC1
- EC50: > 80 µM (inactive)

SMILES: CCOC(=O)C1=C(C)N=C2SC(C(=O)OC)=CC(=O)N2C1c1ccc(F)cc1 (stereo unspecified)
- EC50: > 80 µM (inactive)

SMILES: Nc1nc(Nc2ccccc2)nc(NC2CCCCC2)c1[N+](=O)[O-]
- EC50: inactive

SMILES: CCCCCn1c(N)c(-c2nc3ccccc3o2)c2c([N+](=O)[O-])nn(CC)c(=O)c21
- EC50: inactive

SMILES: CCOC(=O)/C=c1\s/c(=C\c2ccc3cc(OC)ccc3c2)c(=O)n1CC(=O)NCC1CCCO1 (stereo unspecified)
- EC50: > 80 µM (inactive)

SMILES: COc1ccccc1-c1cc(-c2ccccc2)nc(SC(C(N)=O)c2ccccc2)c1C#N (stereo unspecified)
- EC50: > 80 µM (inactive)

SMILES: CCOC(=O)c1c2ccc(OCC(=O)N/N=C/c3ccc(C)cc3)cc2n2ccccc12
- EC50: 17.3 µM

SMILES: COc1c(Cl)cc(Cl)cc1/C=N/NC(=O)c1nnn(-c2nonc2N)c1CN1CCC(C)CC1
- EC50: inactive

SMILES: Oc1ccc(/C=N/Nc2nc(N3CCCC3)nc(N3CCCC3)n2)cc1O
- EC50: 3.95 µM

SMILES: COc1ccc(-c2csc(C3=C(O)CN(Cc4ccc(Cl)cc4)C3=N)n2)cc1OC
- EC50: > 80 µM (inactive)

SMILES: CCc1ccc(-n2c(SCC(=O)c3ccc4c(c3)NC(=O)CO4)nc3ccccc3c2=O)cc1
- EC50: 9.34 µM

SMILES: CCc1nc(N=Nc2c(O)[nH]c3ccccc23)c2c3c(sc2n1)CCC3
- EC50: 10.7 µM

SMILES: CCOc1ccc2nc(NC3=NC(c4ccc(OC)cc4)CC(=O)N3)nc(C)c2c1 (stereo unspecified)
- EC50: 11.8 µM

SMILES: Cc1ccc(Cn2c(SCC(=O)Nc3cc(C)on3)nc3ccccc3c2=O)cc1
- EC50: > 80 µM (inactive)

SMILES: Cc1ccc2c(c1)C(c1ccc([N+](=O)[O-])cc1)=NNC(c1ccc(Br)cc1)=N2
- EC50: > 80 µM (inactive)

SMILES: Cc1sc(NC(=O)c2cc(-c3ccc(Cl)cc3)nc3ccccc23)c(C(N)=O)c1C
- EC50: > 80 µM (inactive)

SMILES: COc1ccc(-c2c(-c3cc(OC)cc(OC)c3)n(C)c3ccc(-c4cnc(N)nc4)cc23)cc1
- EC50: > 80 µM (inactive)

SMILES: Nc1cccc(-c2nc3cc(S(=O)(=O)c4ccc5oc(-c6cccc(N)c6)nc5c4)ccc3o2)c1
- EC50: > 80 µM (inactive)

SMILES: COC(=O)Cc1csc(/N=C/c2c(O)n(-c3cccc(C(F)(F)F)c3)c(=O)c3ccccc23)n1
- EC50: > 80 µM (inactive)

SMILES: COc1cc(C(=O)Nc2nc(-c3ccc(Cl)cc3)c(C)s2)ccc1OCC(=O)Nc1ccc(F)cc1
- EC50: 17.9 µM

SMILES: N#C/C(=C/c1ccc(N2CCCC2)c([N+](=O)[O-])c1)c1nc2ccccc2[nH]1
- EC50: > 80 µM (inactive)

SMILES: O=c1cc2oc3cc(O)c(O)cc3c(-c3ccccc3[N+](=O)[O-])c-2cc1O
- EC50: > 80 µM (inactive)

SMILES: O=[N+]([O-])c1ccc(Cl)c(-c2ccc(/C=N/c3c(-c4ccco4)nc4ccccn34)o2)c1
- EC50: inactive

SMILES: CN(C)CC/C=C1\c2ccc(F)cc2Sc2cc(F)c(Cl)cc21
- EC50: > 80 µM (inactive)

SMILES: C=C(C)[C@@]12OC3(c4ccccc4)O[C@@H]1C1[C@@H]4O[C@]4(CO)[C@@H](O)[C@]4(O)C(=O)C(C)=C[C@H]4[C@@]1(O3)[C@H](C)[C@H]2OC(=O)/C=C/C=C/c1ccccc1 (stereo partly specified)
- EC50: inactive

SMILES: O=C(Cn1c2ccccc2c(=O)c2cc([N+](=O)[O-])ccc21)Nc1ccccc1Cl
- EC50: inactive

SMILES: CCCCN1C(=O)C(=O)c2cc(Cl)ccc21
- EC50: inactive

SMILES: Cc1ccc(-n2nc3c(N4CCC(C(=O)NCCc5cccs5)CC4)nnc(C)c3c2C)cc1
- EC50: > 80 µM (inactive)

SMILES: Cc1ccc(F)cc1N=Cc1c(O)c2ccccc2oc1=O
- EC50: 9.06 µM

SMILES: CCOC(=O)/C(=N\Nc1ccc(C(C)=O)cc1)c1csc(Nc2ccccc2)n1
- EC50: inactive

SMILES: CCOc1ccc(C(=O)Nc2ccc(NC(=O)c3ccco3)c(Cl)c2)cc1Cl
- EC50: 8.74 µM

SMILES: CCOc1ccc(NC(=O)C(Cc2ccccc2)N2C(=O)c3cccc4cccc(c34)C2=O)cc1 (stereo unspecified)
- EC50: > 80 µM (inactive)

SMILES: CC1=CC(C)[C@H](/C=N/n2c(=O)[nH]c3c([nH]c4ccc(C)cc43)c2=O)C(C)C1 (stereo partly specified)
- EC50: inactive

SMILES: O=C(NCC1CC1)c1cccc2c1C(=O)c1ccc(-c3ccc(OC(F)(F)F)cc3)cc1S2(=O)=O
- EC50: > 80 µM (inactive)

SMILES: Cn1c(-c2ccccc2)c(/C=N/NC(=O)c2ccc(O)cc2)c2ccccc21
- EC50: > 80 µM (inactive)
